# Assay results taken from publication PMC3862803, “Human Breast Tumor Cells Are More Resistant to Cardiac Glycoside Toxicity Than Non-Tumorigenic Breast Cells” (PLoS ONE, 2013).
# Like-named read-outs stand apart in the source and are kept apart here.
# Legend:
# [1] = tested on: p-ERK1/2; assay: Western blot of cell lysates for p-ERK1/2; type: cell-based, human; conditions: for p-ERK levels in lysates (western blot): 50 nM or 500 nM ouabain for 24 hours; for p-ERK1/2 levels in lysates (western blot): 500 nM ouabain
# Procedure: Total cell lysate preparations were made by incubating cell pellets in lysis buffer (150 mM NaCl, 50 mM Tris, 1% CHAPS, pH 7.4) for 30 minutes at 4°C. Lysates were cleared at 15,000 x g for 10 minutes and the soluble protein supernatant was collected for analysis. Protein concentrations were determined using the Coomassie Protein Assay Kit (Pierce, Rockford, IL).
# Protein samples were subject to western blot analysis according to previously described procedures [39]. Transferred proteins were blocked using either 5% dried milk, 0.1% Tween-20 in phosphate-buffered saline or 5% bovine serum albumin, 0.1% Tween-20 in Tris-buffered saline. PVDF membranes were sequentially probed with primary antibodies and horseradish peroxidase-conjugated secondary antibodies according to manufacturer’s recommendations. Luminata Forte Western HRP Substrate (Millipore, Billerica, MA) was used for peroxidase detection and the resulting signal intensity was quantified on a BioRad Chemidoc XRS using Quantity One Version 4.6.2 software. When appropriate, signal intensity from anti-actin antibody was used as a protein loading control.
# [2] = tested on: MCF10A cells; assay: BrdU cell proliferation assay; type: cell-based, human; conditions: 500 nM ouabain for 2 hours, P<0.001
# [3] = tested on: MCF7 cells; assay: BrdU cell proliferation assay; type: cell-based, human; conditions: 500 nM ouabain for 24 hours
# Procedure: BrdU label was added to cells in fresh culture medium with or without ouabain for two hours according to manufacturer’s recommendations. BrdU incorporation into the DNA of proliferating cells was detected using an anti-BrdU primary antibody and Peroxidase Goat Anti-mouse secondary antibody. Fluorescence was quantified using a FLUOStar Omega microplate reader (BMG Labtech).
# [4] = tested on: MCF10A cells; assay: PrestoBlue viability assay; type: cell-based, human; conditions: for IC50: Homo sapiens, MCF-10A, 24 hours, mean ± SE, n>3, read-out: Reduced cell viability (IC50)
# Procedure: (§1) To determine cell growth curves, cells were trypsinized, counted using a Scepter Cell Counter (Millipore, Billerica, MA), plated in a 96-well plate at a density of 1,000, 3,000, 5,000, or 10,000 cells per well, and allowed to attach overnight. On day 2, growth curves were determined using the PrestoBlue Viability Assay (Life Technologies, Grand Island, NY) to ensure cell densities used for viability and proliferation assays were in linear growth phase.
# [5] = molecular target: T1, Na,K-ATPase (Homo sapiens, UniProt P05023); assay: biochemical; type: biochemical; conditions: for IC50: mean ± SE, n>3, read-out: IC50 for CTS inhibition of ATPase activity
# T1 construct: The Na,K-ATPase activity in total membranes isolated from non-tumorous 184D, 184A, and MCF10A (10A) cells; endogenous in cells; host or cells: total membranes of MCF10A, 184D, 184A1, MCF10CA1, MCF7 and MDA-MB-231 human breast cells
# Procedure: Total membranes (TM) were prepared from cells as previously described [37] and resuspended in cold homogenizing buffer (10 mM Tris-HCl, 2 mM EDTA, 250 mM sucrose, pH 7.4) containing Complete-Mini Protease Inhibitor Cocktail Tablets (Roche, Indianapolis, IN).
# The ATPase activity assay of isolated TM from cells was performed for 30 min at 37°C as previously described [38].
# [6] = tested on: MDA-MB-231 cells; assay: PrestoBlue viability assay; type: cell-based, human; conditions: for IC50: Homo sapiens, MDA-MB-231, 24 h, read-out: Reduced cell viability (IC50)
# [7] = tested on: MDA-MB-231 cells; assay: TUNEL apoptosis assay; type: cell-based, human; conditions: 6 hours
# Procedure: (§2) As a positive control, MCF10A and MCF10CA1 cells were treated with DNaseI for 15 minutes prior to assay. Cells were fixed and permeabilized prior to Terminal deoxynucleotidyl transferase dUTP nick end labeling (TUNEL) staining of DNA fragmentation using the ApopTag Fluorescein In Situ Apoptosis Detection Kit according to manufacturer’s instructions (Millipore, Billerica, MA). Slides were covered with Vectashield Mounting Medium with DAPI (Vector Laboratories, Burlingame, CA) and sealed with a glass coverslip. Images were detected and analyzed using Zeiss LSM 5 Pascal microscope and software.
# [8] = tested on: MCF10A cells; assay: TUNEL apoptosis assay; type: cell-based, human; conditions: 6 hours
# Procedure: as §2
# [9] = tested on: MCF10CA1 cells; assay: TUNEL apoptosis assay; type: cell-based, human; conditions: 6 hours
# Procedure: as §2
# [10] = tested on: MCF7 cells; assay: TUNEL apoptosis assay; type: cell-based, human; conditions: 6 hours
# [11] = tested on: MCF10CA1 cells; assay: BrdU cell proliferation assay; type: cell-based, human
# [12] = tested on: 184A1 cells; assay: PrestoBlue viability assay; type: cell-based; conditions: Homo sapiens; 184A1, 24 hours; mean ± SE, n>3; read-out: Reduced cell viability (IC50)
# Procedure: as §1
# [13] = tested on: 184D cells; assay: PrestoBlue viability assay; type: cell-based; conditions: Homo sapiens, 24 hours, mean ± SE, n>3, read-out: Reduced cell viability (IC50)
# Procedure: as §1
# [14] = tested on: MCF10CA1 cells; assay: PrestoBlue viability assay; type: cell-based; conditions: Homo sapiens; MCF10CA1, 24 hours; mean ± SE, n>3; read-out: Reduced cell viability (IC50)
# Procedure: as §1
# [15] = tested on: MDA-MB-231 cells; assay: BrdU cell proliferation assay; type: cell-based, human
# [16] = tested on: prostate cancer; conditions: digoxin use, large prospective cohort study; cited from earlier work
# [17] = 24 hour ouabain at high concentrations (500 nM)
smiles,measurement,setting,value
"C[C@@H]1O[C@@H](O[C@H]2C[C@@H](O)[C@]3(CO)[C@H]4[C@H](O)C[C@]5(C)[C@@H](C6=CC(=O)OC6)CC[C@]5(O)[C@@H]4CC[C@]3(O)C2)[C@H](O)[C@H](O)[C@H]1O [Ouabain, ouabain]",p-ERK levels in lysates (western blot),[1]; A2780CP (cisplatin resistant) cells,increased levels of p-ERK
same,p-ERK levels in lysates (western blot),[1]; A2780 cells,increased levels of p-ERK
same,p-ERK1/2 levels in lysates (western blot),"[1]; MCF10A, 24 hours (any treatment condition)",did not contain detectable levels of activated p-ERK1/2
same,p-ERK1/2 levels in lysates (western blot),"[1]; MCF10CA1, 24 hours",elevated p-ERK1/2 levels
same,p-ERK1/2 levels in lysates (western blot),"[1]; MDA-MB-231, 24 hours",elevated p-ERK1/2 levels
same,Proliferation (BrdU incorporation),[2],decrease in proliferation
same,Proliferation (BrdU incorporation),[3],no change to proliferation
same,Cell viability over treatment duration,"[4]; 500 nM ouabain, after 2 days (0 to 48 hours)",nearly all of the MCF10A cells have died
same,IC50,[4],2170 ± 192 nM
same,Cell viability at varied serum concentration,"[4]; reduced serum (0-10% serum), 500 nM ouabain for 24 hours",increased ouabain sensitivity
same,ATPase inhibition at varied serum level,"[5]; MCF10A isolated membranes, 0-10% serum, 500 nM ouabain, p > 0.05",No significant difference in ATPase inhibition
same,Cell viability at varied serum concentration,"[6]; MDA-MB-231, 0-10% serum, 500 nM ouabain for 24 hours",not affected
same,"Cells exhibiting DNA fragmentation (TUNEL), a marker for apoptosis",[7]; 500 nM ouabain,< 5%
same,"Cells exhibiting DNA fragmentation (TUNEL), a marker for apoptosis",[8]; 500 nM ouabain,Over 90%
same,"Cells exhibiting DNA fragmentation (TUNEL), a marker for apoptosis",[9]; 500 nM ouabain,< 5%
same,"Cells exhibiting DNA fragmentation (TUNEL), a marker for apoptosis",[10]; 500 nM ouabain,< 5%
same,Proliferation (BrdU incorporation),[11]; [17],slight decrease in proliferation
same,Proliferation (BrdU incorporation),[11]; short-term (2 hours) ouabain,not affected
same,IC50,[12],1490 ± 45.3 nM
same,IC50,[13],1350 ± 155 nM
same,IC50,[14],2670 ± 574 nM
same,Proliferation (BrdU incorporation),[15]; [17],slight decrease in proliferation
same,Proliferation (BrdU incorporation),[15]; short-term (2 hours) ouabain,not affected
C[C@H]1O[C@@H](O[C@H]2[C@@H](O)C[C@H](O[C@H]3[C@@H](O)C[C@H](O[C@H]4CC[C@@]5(C)[C@H](CC[C@@H]6[C@@H]5C[C@@H](O)[C@]5(C)[C@@H](C7=CC(=O)OC7)CC[C@]65O)C4)O[C@@H]3C)O[C@@H]2C)C[C@H](O)[C@@H]1O [digoxin],Prevention of prostate cancer,[16],≤ 25%
"C[C@H]1O[C@@H](O[C@H]2[C@@H](O)C[C@H](O[C@H]3[C@@H](O)C[C@H](O[C@H]4CC[C@@]5(C)[C@H](CC[C@@H]6[C@@H]5CC[C@]5(C)[C@@H](C7=CC(=O)OC7)CC[C@]65O)C4)O[C@@H]3C)O[C@@H]2C)C[C@H](O)[C@@H]1O [Digitoxin, digitoxin]",IC50,[4],1570 ± 191 nM
same,IC50,[5]; total membranes of 184A1 cells,1830 ± 88.7 nM
same,IC50,[5]; total membranes of 184D cells,2070 ± 307 nM
same,IC50,[5]; total membranes of MCF7 cells,1160 ± 42.7 nM
same,IC50,[5]; total membranes of MCF10A cells,1350 ± 85.2 nM
same,IC50,[5]; total membranes of MCF10CA1 cells,1480 ± 73.8 nM
same,IC50,[5]; total membranes of MDAMB231 cells,1180 ± 155 nM
same,IC50,[6],3680 ± 150 nM
same,IC50,[12],1440 ± 29.3 nM
same,IC50,[13],1270 ± 65.4 nM
same,IC50,[14],3680 ± 89.5 nM
"C[C@]12CC[C@H](O)C[C@H]1CC[C@@H]1[C@@H]2CC[C@]2(C)[C@@H](c3ccc(=O)oc3)CC[C@]12O [Bufalin, bufalin]",IC50,[4],465 ± 25.9 nM
same,IC50,[6],936.4 ± 4.9 nM
same,"Cells exhibiting DNA fragmentation (TUNEL), a marker for apoptosis",[7]; 50 nM bufalin,< 5%
same,"Cells exhibiting DNA fragmentation (TUNEL), a marker for apoptosis",[8]; 50 nM bufalin,Over 90%
same,"Cells exhibiting DNA fragmentation (TUNEL), a marker for apoptosis",[9]; 50 nM bufalin,< 5%
same,"Cells exhibiting DNA fragmentation (TUNEL), a marker for apoptosis",[10]; 50 nM bufalin,< 5%
same,IC50,[12],319 ± 6.1 nM
same,IC50,[13],329 ± 11.2 nM
same,IC50,[14],635 ± 172 nM
